In data set [1] the target is other CDKs. Nature of the data set: Kinase assay in vitro, other CDKs overall. In kind it is biochemical. Conditions: read-out: IC50 values for inhibition of other CDKs; CDKs other than CDK7.
In data set [2] the test system is BGC823 cells. Nature of the data set: Transwell cell migration assay. In kind it is cell-based, Human. The settings on record: 24 hours, dose-dependent, P<0.05.
Data set [3] deals with BGC823 cells. Briefly: Matrigel-coated transwell invasion assay. In kind it is cell-based, Human. Conditions: 24 hours, matrigel-coated transwells, dose-dependent, P<0.05.
The test system of data set [4] is BGC823 cells. Briefly: Apoptosis by flow cytometry. In kind it is cell-based, Human. The settings on record: compared to control, dose- and time-dependent, P<0.05. (Flow cytometry measures light scatter and fluorescence of single cells or particles in a stream.)
The test system of data set [5] is BGC823 cells. Briefly: Western blot of apoptosis and cell cycle proteins. In kind it is cell-based, Human. Conditions: P<0.05.
Data set [6] deals with BGC823 cells. Nature of the data set: Cell cycle distribution by flow cytometry. In kind it is cell-based, Human.
The subject of data set [7] is RNA polymerase II CTD serine 5 (P-Ser5), CDK7 phosphorylation site. Nature of the data set: Immunoblotting of RNA polymerase II CTD Ser5 phosphorylation. The settings on record: BGC823 whole cell lysates, 4 hours. In kind it is cell-based, Human. In general terms: In western blotting, separated proteins are transferred to a membrane and probed.
Data set [8] relates to BGC823 xenograft.
For data set [9] the following is noted: cited from earlier work.

Where two headings read alike, the source gives them in different places.

For orientation: IC50 means the concentration that gives 50% inhibition. Regarding `CC(C)c1cnn2c(NCc3ccccc3)cc(NCCCCCCN)nc12` [BS-181], in data set [1], the IC50 was greater than 1000 nM. Also, in [2], the cell migration ability entry is listed as “significantly inhibited”. Further, the cell invasion ability result in [3] is listed as “significantly inhibited”. For the same compound, in data set [4], the apoptotic cells entry is recorded as “Significant increases”. Besides, in [5], the XIAP expression result is recorded as “significant reduction” and the “cyclin D1 expression” value is on record as “significant reduction”. Besides, in [5] (compared to control), the Bax expression result is listed as “significantly increased”, the Bcl-2 level result is reported as “reduced” and the caspase-3 expression entry is “significantly increased”. In [6], the “cell population in S and G2/M phases” value is “reduction”; the “cells in G0/G1” value is reported as “increase”. Also, the “phosphorylation of the RNA polymerase II CTD at serine 5 (P-Ser5)” value in data set [7] is listed as “inhibited”. In addition, the “mice body weights, difference between groups” value in data set [8] (14-day observation, 10 or 20 mg/kg/d ip) is “no significant difference”. Further, in [8] (BS-181 10 mg/kg/d ip for 14 days, six of ten), the “mice died in additional 30-day survival observation” value (shortened to “mice died”) came to 60%. The “mice died” value in [8] (BS-181 20 mg/kg/d ip for 14 days, three of ten) is 30%. The toxicity entry in [8] (daily dose of 10 mg/kg or 20 mg/kg ip, 14 days) is “no apparent toxicity”. Also, the tumor growth entry in data set [8] (ip twice daily, 10 or 20 mg/kg/d, 14 days, dose-dependent, compared to control, P<0.05) is “significantly inhibited”. The tolerability result in data set [9] (dose of 10 mg/kg/d or 20 mg/kg/d, BALB/c-nu mice) is recorded as “well-tolerated”. Also, the “maximum tolerated single dose” value in data set [9] (given intraperitoneally) was 30 mg/kg/day.
Take `CC[C@H](CO)Nc1nc(NCc2ccccc2)c2ncn(C(C)C)c2n1` [Roscovitine, roscovitine]: in data set [8] (roscovitine 20 mg/kg/d for 14 days, five of ten), the “mice died” value was 50%.

These data come from article PMC4801149 (Drug Design, Development and Therapy, 2016).
